Our source for the EC50 and MEC values is US20240101528A1, “SUBSTITUTED PYRAZOLO PIPERIDINE CARBOXYLIC ACIDS” (BAYER AKTIENGESELLSCHAFT, priority 2020, published 2024).

The target in this experiment is T1, recombinant guanylate cyclase reporter cell line (Rattus norvegicus, UniProt P20595).
T1 construct: expressed in transfected cells
T1 sequence (P20595 1-619): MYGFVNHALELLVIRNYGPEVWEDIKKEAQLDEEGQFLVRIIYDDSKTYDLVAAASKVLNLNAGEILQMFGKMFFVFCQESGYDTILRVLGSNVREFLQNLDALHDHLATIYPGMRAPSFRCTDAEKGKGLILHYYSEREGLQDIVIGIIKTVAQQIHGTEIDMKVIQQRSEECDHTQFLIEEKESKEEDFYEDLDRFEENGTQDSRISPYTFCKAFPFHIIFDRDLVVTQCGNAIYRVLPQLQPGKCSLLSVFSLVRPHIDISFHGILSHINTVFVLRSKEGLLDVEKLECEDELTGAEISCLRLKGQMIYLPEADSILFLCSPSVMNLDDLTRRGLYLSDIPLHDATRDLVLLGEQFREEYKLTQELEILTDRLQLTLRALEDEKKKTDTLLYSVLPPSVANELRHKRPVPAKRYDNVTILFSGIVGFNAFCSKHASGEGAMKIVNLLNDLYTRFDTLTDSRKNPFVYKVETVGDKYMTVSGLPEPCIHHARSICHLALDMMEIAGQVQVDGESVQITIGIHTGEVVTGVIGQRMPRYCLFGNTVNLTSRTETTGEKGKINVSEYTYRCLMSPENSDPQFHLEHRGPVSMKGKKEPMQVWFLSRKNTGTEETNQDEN
T1 sequence (P19686 1-690 partner): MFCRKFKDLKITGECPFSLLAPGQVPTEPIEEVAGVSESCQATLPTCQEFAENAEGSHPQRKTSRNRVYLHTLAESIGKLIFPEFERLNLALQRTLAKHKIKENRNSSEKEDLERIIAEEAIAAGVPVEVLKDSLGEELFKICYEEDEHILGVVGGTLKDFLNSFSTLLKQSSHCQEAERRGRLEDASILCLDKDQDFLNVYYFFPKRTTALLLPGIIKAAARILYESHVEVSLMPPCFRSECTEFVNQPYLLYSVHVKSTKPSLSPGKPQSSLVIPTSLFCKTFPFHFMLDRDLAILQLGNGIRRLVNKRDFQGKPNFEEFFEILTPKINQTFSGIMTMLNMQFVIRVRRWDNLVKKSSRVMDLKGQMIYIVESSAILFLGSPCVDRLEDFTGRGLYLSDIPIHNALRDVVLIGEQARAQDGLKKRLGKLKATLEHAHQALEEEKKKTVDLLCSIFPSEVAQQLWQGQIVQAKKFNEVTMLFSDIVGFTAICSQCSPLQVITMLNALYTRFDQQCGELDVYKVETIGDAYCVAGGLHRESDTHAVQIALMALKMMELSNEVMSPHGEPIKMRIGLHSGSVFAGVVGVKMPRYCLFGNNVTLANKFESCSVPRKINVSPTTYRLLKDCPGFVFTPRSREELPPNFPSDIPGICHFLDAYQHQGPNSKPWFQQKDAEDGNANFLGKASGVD
The experiment can be described thus: Effect on a recombinant guanylate cyclase reporter cell line. It is filed as cell-based. The settings on record: for EC50: half maximal effective concentration; for MEC: minimum effective concentration. The procedure: B-1. Effect on a Recombinant Guanylate Cyclase Reporter Cell Line
The cellular activity of the compounds according to the invention was determined using a recombinant guanylate cyclase reporter cell line, as described in F. Wunder et al., Anal. Biochem. 339, 104-112 (2005).

Structures can show the parent of a compound that is named as a salt. A value given as a limit tells only on which side of the number the result lay.

As to `O=C(O)c1cnn(C2CCCN(c3cc(Cl)ccc3-c3ccc(C4CN(CCC(F)(F)F)C4)cc3)C2)c1C(F)F` (single isomer, unassigned; enantiomer 2) [Example 59, 1-(1-{4-Chloro-4′-[1-(3,3,3-trifluoropropyl)azetidin-3-yl][biphenyl]-2-yl}piperidin-3-yl)-5-(difluoromethyl)-1H-pyrazole-4-carboxylic acid hydrochloride (Enantiomer 2)], the EC50 was found to be 8.7 nM and the MEC stood at 3.0 nM.
The matching figures for `CCN1CCN(c2ccc(-c3ccc(Cl)cc3N3CCCC(n4ncc(C(=O)O)c4C(F)F)C3)cn2)CC1` (single isomer, unassigned; enantiomer 2) [Example 60, 1-(1-{5-Chloro-2-[6-(4-ethylpiperazin-1-yl)pyridin-3-yl]phenyl}piperidin-3-yl)-5-(difluoromethyl)-1H-pyrazole-4-carboxylic acid hydrochloride (Enantiomer 2)]: 70 nM and 30.0 nM.
In the case of `CCCN1CCN(c2ccc(-c3ccc(Cl)cc3N3CCCC(n4ncc(C(=O)O)c4C(F)F)C3)cn2)CC1` (single isomer, unassigned; enantiomer 2) [Example 61, 1-(1-{5-Chloro-2-[6-(4-propylpiperazin-1-yl)pyridin-3-yl]phenyl}piperidin-3-yl)-5-(difluoromethyl)-1H-pyrazole-4-carboxylic acid hydrochloride (Enantiomer 2)], the EC50 was found to be 28.5 nM and the MEC was 10.0 nM.
On to `CC(C)CN1CCN(c2ccc(-c3ccc(Cl)cc3N3CCCC(n4ncc(C(=O)O)c4C(F)F)C3)cn2)CC1` (single isomer, unassigned; enantiomer 2) [Example 62, 1-(1-{5-Chloro-2-[6-(4-isobutylpiperazin-1-yl)pyridin-3-yl]phenyl}piperidin-3-yl)-5-(difluoromethyl)-1H-pyrazole-4-carboxylic acid hydrochloride (Enantiomer 2)], for which the 50% effective concentration (EC50) amounted to 7.5 nM and the MEC is 3.0 nM.
With `O=C(O)c1cnn(C2CCCN(c3cc(Cl)ccc3-c3ccc(N4CCN(CC5CC5)CC4)nc3)C2)c1C(F)F` (single isomer, unassigned; enantiomer 2) [Example 63, 1-[1-(5-Chloro-2-{6-[4-(cyclopropylmethyl)piperazin-1-yl]pyridin-3-yl}phenyl)piperidin-3-yl]-5-(difluoromethyl)-1H-pyrazole-4-carboxylic acid hydrochloride (Enantiomer 2)], the concentration for a half-maximal effect (EC50) was 68 nM and the MEC is 10.0 nM.
Turning to `O=C(O)c1cnn(C2CCCN(c3cc(Cl)ccc3-c3ccc(N4CCN(CC(F)(F)F)CC4)nc3)C2)c1C(F)F` (single isomer, unassigned; enantiomer 2) [Example 65, 1-[1-(5-Chloro-2-{6-[4-(2,2,2-trifluoroethyl)piperazin-1-yl]pyridin-3-yl}phenyl)piperidin-3-yl]-5-(difluoromethyl)-1H-pyrazole-4-carboxylic acid hydrochloride (Enantiomer 2)], the EC50 amounted to 6.9 nM and the MEC is listed as 1.0 nM.
Regarding `O=C(O)c1cnn(C2CCCN(c3cc(Cl)ccc3-c3ccc(N4CCN(CCC(F)(F)F)CC4)nc3)C2)c1C(F)F` (single isomer, unassigned; enantiomer 2) [Example 67, 1-[1-(5-Chloro-2-{6-[4-(3,3,3-trifluoropropyl)piperazin-1-yl]pyridin-3-yl}phenyl)piperidin-3-yl]-5-(difluoromethyl)-1H-pyrazole-4-carboxylic acid hydrochloride (Enantiomer 2)], the half-maximal effective concentration (EC50) is below 1 nM and the MEC is recorded as below 0.3 nM.
Regarding `CC(=O)N1CCN(c2ccc(-c3ccc(Cl)cc3N3CCCC(n4ncc(C(=O)O)c4C(F)F)C3)cn2)CC1` (single isomer, unassigned; enantiomer 2) [Example 68, 1-(1-{2-[6-(4-Acetylpiperazin-1-yl)pyridin-3-yl]-5-chlorophenyl}piperidin-3-yl)-5-(difluoromethyl)-1H-pyrazole-4-carboxylic acid hydrochloride (Enantiomer 2)], the 50% effective concentration (EC50) came to 68 nM and the MEC is given as 30.0 nM.
Regarding `Cc1cc(N2CCN(CC(F)(F)F)CC2)ncc1-c1ccc(Cl)cc1N1CCCC(n2ncc(C(=O)O)c2C(F)F)C1` (single isomer, unassigned; enantiomer 2) [Example 69, 1-[1-(5-Chloro-2-{4-methyl-6-[4-(2,2,2-trifluoroethyl)piperazin-1-yl]pyridin-3-yl}phenyl)piperidin-3-yl]-5-(difluoromethyl)-1H-pyrazole-4-carboxylic acid hydrochloride (Enantiomer 2)], the EC50 was 45.5 nM and the MEC is reported as 30.0 nM.
In the case of `CC(C)CN1CCN(c2ncc(-c3ccc(Cl)cc3N3CCCC(n4ncc(C(=O)O)c4C(F)F)C3)cn2)CC1` (single isomer, unassigned; enantiomer 2) [Example 70, 1-(1-{5-Chloro-2-[2-(4-isobutylpiperazin-1-yl)pyrimidin-5-yl]phenyl}piperidin-3-yl)-5-(difluoromethyl)-1H-pyrazole-4-carboxylic acid hydrochloride (Enantiomer 2)], the EC50 is 21.5 nM and the MEC came to 3.0 nM.
Take `CN1CCN(c2ncc(-c3ccc(Cl)cc3N3CCCC(n4ncc(C(=O)O)c4C(F)F)C3)cn2)CC1` (single isomer, unassigned; enantiomer 2) [Example 71, 1-(1-{5-Chloro-2-[2-(4-methylpiperazin-1-yl)pyrimidin-5-yl]phenyl}piperidin-3-yl)-5-(difluoromethyl)-1H-pyrazole-4-carboxylic acid hydrochloride (Enantiomer 2)]: the EC50 stood at 92 nM and the MEC turned out to be 30.0 nM.
Take `O=C(O)c1cnn(C2CCCN(c3cc(Cl)ccc3-c3cnc(N4CCN(CC5CC5)CC4)nc3)C2)c1C(F)F` (single isomer, unassigned; enantiomer 2) [Example 72, 1-[1-(5-Chloro-2-{2-[4-(cyclopropylmethyl)piperazin-1-yl]pyrimidin-5-yl}phenyl)piperidin-3-yl]-5-(difluoromethyl)-1H-pyrazole-4-carboxylic acid hydrochloride (Enantiomer 2)]: the EC50 stood at 18 nM and the MEC is on record as 3.0 nM.
Turning to `CCN1CCN(c2ccc(-c3ccc(C(F)(F)F)cc3N3CCCC(n4ncc(C(=O)O)c4C(F)F)C3)cc2)CC1` (single isomer, unassigned; enantiomer 2) [Example 74, 5-(Difluoromethyl)-1-{1-[4′-(4-ethylpiperazin-1-yl)-4-(trifluoromethyl)[biphenyl]-2-yl]piperidin-3-yl}-1H-pyrazole-4-carboxylic acid hydrochloride (Enantiomer 2)], the EC50 was found to be 79.5 nM and the MEC was found to be 10.0 nM.
As for `O=C(O)c1cnn(C2CCCN(c3cc(Cl)ccc3-c3ccc(N4CCN(C(=O)[C@H]5C[C@H]5F)CC4)cc3)C2)c1C(F)F` (single isomer, unassigned; stereoisomer 2) [Example 35], the concentration for a half-maximal effect (EC50) is 11.3 nM and the MEC was 2.0 nM.
For `O=C(O)c1cnn(C2CCCN(c3cc(Cl)ccc3-c3ccc(N4CCN(C[C@@H]5C[C@@H]5F)CC4)cc3)C2)c1C(F)F` (single isomer, unassigned; stereoisomer 2) [Example 36], the EC50 was 4.2 nM and the MEC amounted to 1.0 nM.
For the compound `O=C(O)c1cnn(C2CCCN(c3cc(Cl)ccc3-c3ccc(N4CCN(C[C@H]5C[C@H]5F)CC4)cc3)C2)c1C(F)F` (single isomer, unassigned; stereoisomer 2) [Example 37], the EC50 was 2.1 nM and the MEC came to 1.0 nM.

The EC50 is the concentration giving half of the maximal effect.
